Assay results taken from PMC6535779, “A Specific, Glycomimetic Langerin Ligand for Human Langerhans Cell Targeting” (ACS Central Science, 2019).
Like-named read-outs stand apart in the source and are kept apart here.

Assays:
[1] = molecular target: T1, Langerin extracellular domain (ECD) (Homo sapiens, UniProt Q9UJ71); experiment: 19F R2-filtered NMR reporter displacement assay with Langerin; assay type: binding; conditions: for Ki: 19F R2-filtered NMR, 0.1 mM reporter ligand 24, pH 7.8, 25 °C
T1 construct: the trimeric Langerin extracellular domain (ECD) was expressed insolubly in E; made in house
Experimental: (§1) Receptor Expression and Purification
General remarks. Codon-optimized genes for the expression of Langerin and DC-SIGN in E. coli were purchased from GenScript and Life Technologies, respectively. All growth media or chemicals used for receptor expression and purification were purchased from Carl Roth if not stated otherwise.
Langerin extracellular domain. Expression and purification were conducted as previously published14. Briefly, the trimeric Langerin extracellular domain (ECD) was expressed insolubly in E. coli BL21* (DE3) (Invitrogen). Following enzymatic cell lysis, inclusion bodies were harvested and subsequently solubilized. The sample was centrifuged and the Langerin ECD was refolded overnight via rapid dilution. Next, the sample was dialyzed overnight, centrifuged and purified via mannan-agarose affinity chromatography (Sigma Aldrich). For 19F R2-filtered NMR and lipid-enzyme-linked lectin assay (Lipid-ELLA) experiments, the buffer was exchanged to 25 mM Tris with 150 mM NaCl and 5 mM CaCl2 at pH 7.8 using 7 kDa size-exclusion desalting columns (Thermo Scientific). For […]
D2O, 150 mM NaCl and 5 mM CaCl2 at pH 7. The concentration of Langerin ECD was determined via UV spectroscopy (A280, 0.1% = 2.45). Purity and monodispersity of Langerin ECD samples were analyzed via SDS PAGE and DLS. […]
General remarks. 19F R2-filtered NMR experiments were conducted on a PremiumCompact 600 MHz spectrometer (Agilent). Spectra were processed in MestReNova and data analysis was performed with OriginPro 13, 15. Experiments with the Langerin ECD were performed at a receptor concentration of 50 μM in 25 mM Tris with 10% D2O, 150 mM NaCl and 5 mM CaCl2 at pH 7.8 and 25° C. […]
10% D2O, 150 mM NaCl and 5 mM CaCl2 at pH 7.0 and 25°C. TFA served as an internal reference at a concentration of 50 μM. Apparent relaxation rates R2,obs for the reporter ligand were determined using the CPMG pulse sequence as previously published3-5. […]
(§2) KI determination. KI values were determined as previously published for Langerin3. Briefly, titration experiments were conducted at a concentration of 0.1 mM of reporter ligand 24 at five competitor concentrations [I]T. Samples were prepared via serial dilution. For the acids GlcNS, GlcNAc-6-OS and GlcNS-6-OS the pH values were monitored and adjusted to 7.8 if necessary.
(§3) General remarks. 15N HSQC NMR experiments were conducted on an Ascend 700 MHz spectrometer (Bruker)16. Spectra were processed in NMRPipe17. Data analysis was performed using CCPN Analysis, MatLab and OriginPro15, 18-19. Experiments with the Langerin CRD were performed at a receptor concentration of 100 μM in 25 mM HEPES with 10% D 2O, 150 mM NaCl and 5 mM CaCl2 at pH 7.8 and 25° C. DSS-d6 served as an internal reference at a concentration of 100 μM. Spectra were referenced via the internal spectrometer reference. Spectra were acquired with 128 increments and 32 scans per increments for 150 μl samples in 3 mm sample tubes. The relaxation delay d1 was set to 1.4 s and the acquisition time tacq was set to 100 ms. The W5 Watergate pulse sequence was used for solvent suppression20. The used resonance assignment for the Langerin CRD has been published […]
(§4) KD determination. KD values were determined in titration experiments at six ligand concentrations [L]T. Samples were prepared via serial dilution. Chemical shift perturbations CSPs for Langerin CRD resonances in the fast or fast-to-intermediate exchange regime observed upon titration with ligand were calculated via Equation 121.

[2] = molecular target: T2, Langerin CRD (Homo sapiens, UniProt Q9UJ71); experiment: 15N HSQC NMR titration, KD determination; assay type: binding
T2 construct: made in house
Experimental: as §1
General remarks. Codon-optimized genes for the expression of Langerin and DC-SIGN in E. coli were purchased from GenScript and Life Technologies, respectively. All growth media or chemicals used for receptor expression and purification were purchased from Carl Roth if not stated otherwise. […]
Langerin and DC-SIGN carbohydrate recognition domain. Expression and purification were conducted as previously published14. Briefly, the monomeric 15N-labeled Langerin and DC-SIGN carbohydrate recognition domains (CRDs) were expressed insolubly in E. coli BL21* (DE3) (Invitrogen). Following enzymatic cell lysis, inclusion bodies were harvested and subsequently solubilized. The sample was centrifuged and the Langerin and DC-SIGN CRDs were refolded overnight via rapid dilution. Next, the sample was dialyzed overnight, centrifuged and purified via StrepTactin affinity chromatography (Iba). After an additional dialysis step overnight, the sample was centrifuged and the buffer was exchanged to 25 mM HEPES with 150 mM NaCl at pH 7.0 using 7 kDa size-exclusion desalting columns (Thermo Scientific) for 19F R2-filtered and 15N HSQC NMR experiments. The concentration of Langerin and DC -SIGN CRDs was determined via UV spectroscopy (A280, 0.1% = 3.19 and A280, 0.1% = 2.98). Purity and monodispersity of Langerin and DC - SIGN CRD samples were analyzed via SDS PAGE and DLS. […]
as §2, §3, §4
A standard deviation σ of 0.02 ppm was previously determined for the measurement of chemical shifts in 15N HSQC NMR experiments with the Langerin CRD1. Accordingly, only assigned resonances that […]
for the determination of KD values via Equation 2 in a global two parameter fit21. Standard errors were derived directly from the fitting procedures.
Δv0.5 larger than 10 Hz upon titration in either the 1H or the 15N dimension were not considered for the determination of KD values. CSPmax represents the CSP value observed upon saturation of the binding […]

[3] = calculated utilizing the KI value determined for 21
[4] = CSPs of fast-exchanging resonances, read-out: KD, Langerin (KD,fast)
[5] = from integrals V of resonances in slow exchange, read-out: KD, Langerin (KD,slow)

T2 sequence (Q9UJ71 202-320 limits assumed): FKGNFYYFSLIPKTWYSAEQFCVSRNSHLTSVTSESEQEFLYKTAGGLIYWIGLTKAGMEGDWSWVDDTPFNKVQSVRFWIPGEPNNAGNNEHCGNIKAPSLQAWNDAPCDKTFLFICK
T1 sequence (Q9UJ71 65-328 limits assumed): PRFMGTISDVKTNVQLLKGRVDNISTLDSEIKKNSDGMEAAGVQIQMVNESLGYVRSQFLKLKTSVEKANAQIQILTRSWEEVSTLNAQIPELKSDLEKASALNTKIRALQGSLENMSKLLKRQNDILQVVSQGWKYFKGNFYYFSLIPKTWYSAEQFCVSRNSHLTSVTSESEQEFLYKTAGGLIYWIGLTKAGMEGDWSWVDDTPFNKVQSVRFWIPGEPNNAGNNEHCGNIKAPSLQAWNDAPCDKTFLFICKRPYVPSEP

With `Cc1ccc(S(=O)(=O)N[C@H]2C(O)O[C@H](CO)[C@@H](O)[C@@H]2O)cc1` (some centres unmarked) [compound 2] the Ki [1] was 320 ± 50 µM, the “Relative potency, Langerin” value [1, 3] was 31 and the “Relative potency, Langerin” value ([1]; calculated utilizing the KI value determined for GlcNAc) was 13. The “affinity increase over GlcNAc” value ([1]; from KI values, Langerin) was 13 fold, the Kd [2, 4] was 460 ± 40 µM and the Kd [2, 5] was 500 ± 200 µM.
`CC(=O)NCCO[C@@H]1O[C@H](CO)[C@@H](O)[C@H](O)[C@H]1NS(=O)(=O)c1ccc(C)cc1` [compound 16] was tested, and the Ki [1] was 240 ± 30 µM, the “Relative potency, Langerin” value [1, 3] was 42 and the “affinity increase over Man-based reference molecule 21” value ([1]; from KI values, Langerin, b47 words it as over natural glycans) was 42 fold. It also gave a Kd [2, 4] of 230 ± 70 µM and a Kd [2, 5] of 300 ± 100 µM.
`CC(=O)NCCO[C@H]1O[C@H](CO)[C@@H](O)[C@H](O)[C@@H]1O` [compound 21] was tested, and the Ki [1] was 10000 ± 1000 µM, the “Relative potency, Langerin” value [1, 3] was 1.0 and the Kd [2, 4] was 12000 ± 1000 µM.
